# According to PubChem BioAssay (NCI):
#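 Protocol summary: plate cells (96-well), add compound at 5 concentrations, incubate 48 h, interpolate endpoints linearly. TGI: total growth inhibition.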
# Experiments:
# Assay in all cases: growth of human tumour cells (NCI), 48 h
# [1] = test system: 786-0 renal
# [2] = test system: A549 NSCLC
# [3] = test system: ACHN renal
# [4] = test system: BT-549 breast
# [5] = test system: CAKI-1 renal
# [6] = test system: CCRF-CEM leukemia
# [7] = test system: COLO 205 colon
# [8] = test system: DU-145 prostate
# [9] = test system: EKVX NSCLC
# [10] = test system: HCC-2998 colon
# [11] = test system: HCT-116 colon
# [12] = test system: HCT-15 colon
# [13] = test system: HL-60(TB) leukemia
# [14] = test system: HOP-62 NSCLC
# [15] = test system: HOP-92 NSCLC
# [16] = test system: HS 578T breast
# [17] = test system: IGROV1 ovarian
# [18] = test system: K-562 leukemia
# [19] = test system: LOX IMVI melanoma
# [20] = test system: M14 melanoma
# [21] = test system: MALME-3M melanoma
# [22] = test system: MCF7 breast
# [23] = test system: MDA-MB-231 breast
# [24] = test system: MDA-MB-435
# [25] = test system: MDA-N
# [26] = test system: MOLT-4 leukemia
# [27] = test system: NCI-H226 lung
# [28] = test system: NCI-H23 lung
# [29] = test system: NCI-H460 lung
# [30] = test system: NCI-H522 lung
# [31] = test system: NCI/ADR-RES ovarian
# [32] = test system: OVCAR-3 ovarian
# [33] = test system: OVCAR-4 ovarian
# [34] = test system: OVCAR-5 ovarian
# [35] = test system: OVCAR-8 ovarian
# [36] = test system: PC-3 prostate
# [37] = test system: RPMI-8226 leukemia
# [38] = test system: RXF 393 renal
# [39] = test system: SF-268 CNS
# [40] = test system: SF-295 CNS
# [41] = test system: SF-539 CNS
# [42] = test system: SK-MEL-2 melanoma
# [43] = test system: SK-MEL-28 melanoma
# [44] = test system: SK-MEL-5 melanoma
# [45] = test system: SK-OV-3 ovarian
# [46] = test system: SN12C renal
# [47] = test system: SNB-19 CNS
# [48] = test system: SR leukemia
# [49] = test system: SW-620 colon
# [50] = test system: TK-10 renal
# [51] = test system: UACC-257 melanoma
# [52] = test system: UO-31 renal
# [53] = test system: A498 renal
# [54] = test system: HT29 colon
# [55] = test system: KM12 colon
# [56] = test system: SNB-75 CNS
# [57] = test system: T-47D breast
# [58] = test system: U251 CNS
# [59] = test system: UACC-62 melanoma
structure (smiles),measurement,setting,value
COC(=O)CNC(=O)C(CSC(=O)OCC1c2ccccc2-c2ccccc21)NC(=O)CCC(NC(=O)OCC1c2ccccc2-c2ccccc21)C(=O)OC (stereo not drawn),TGI,[1],26.6 µM
same,TGI,[2],27.5 µM
same,TGI,[3],> 100 µM
same,TGI,[4],31.3 µM
same,TGI,[5],19.9 µM
same,TGI,[6],38.7 µM
same,TGI,[7],78.9 µM
same,TGI,[8],> 100 µM
same,TGI,[9],> 100 µM
same,TGI,[10],40.7 µM
same,TGI,[11],32.5 µM
same,TGI,[12],> 100 µM
same,TGI,[13],46.8 µM
same,TGI,[14],40.2 µM
same,TGI,[15],30.8 µM
same,TGI,[16],> 100 µM
same,TGI,[17],31.6 µM
same,TGI,[18],82.7 µM
same,TGI,[19],21.1 µM
same,TGI,[20],58.9 µM
same,TGI,[21],76.8 µM
same,TGI,[22],42.8 µM
same,TGI,[23],30.2 µM
same,TGI,[24],67.4 µM
same,TGI,[25],38.5 µM
same,TGI,[26],56.8 µM
same,TGI,[27],> 100 µM
same,TGI,[28],37 µM
same,TGI,[29],59.2 µM
same,TGI,[30],17 µM
same,TGI,[31],> 100 µM
same,TGI,[32],32 µM
same,TGI,[33],33.4 µM
same,TGI,[34],76.7 µM
same,TGI,[35],30.4 µM
same,TGI,[36],> 100 µM
same,TGI,[37],90.1 µM
same,TGI,[38],32 µM
same,TGI,[39],51.9 µM
same,TGI,[40],31.2 µM
same,TGI,[41],37.8 µM
same,TGI,[42],31.1 µM
same,TGI,[43],> 100 µM
same,TGI,[44],> 100 µM
same,TGI,[45],74.6 µM
same,TGI,[46],> 100 µM
same,TGI,[47],68.1 µM
same,TGI,[48],37.5 µM
same,TGI,[49],> 100 µM
same,TGI,[50],> 100 µM
same,TGI,[51],> 100 µM
same,TGI,[52],35 µM
CC(C)Oc1cccc(N2C(n3ccnc3)=Nc3ccncc3S2(=O)=O)c1,TGI,[1],22.1 µM
same,TGI,[53],31.8 µM
same,TGI,[2],37.2 µM
same,TGI,[3],21.6 µM
same,TGI,[4],29 µM
same,TGI,[5],28.3 µM
same,TGI,[7],24.7 µM
same,TGI,[8],25 µM
same,TGI,[9],30.4 µM
same,TGI,[10],31 µM
same,TGI,[11],26.8 µM
same,TGI,[12],32.7 µM
same,TGI,[14],33.6 µM
same,TGI,[15],25.7 µM
same,TGI,[16],38.5 µM
same,TGI,[54],34.9 µM
same,TGI,[17],29.1 µM
same,TGI,[18],36.6 µM
same,TGI,[55],49.5 µM
same,TGI,[19],31.9 µM
same,TGI,[20],28.2 µM
same,TGI,[21],26.6 µM
same,TGI,[22],24.1 µM
same,TGI,[24],32.7 µM
same,TGI,[25],25.4 µM
same,TGI,[26],14.8 µM
same,TGI,[27],42.5 µM
same,TGI,[28],24.9 µM
same,TGI,[29],37.4 µM
same,TGI,[30],22 µM
same,TGI,[31],62 µM
same,TGI,[32],21.9 µM
same,TGI,[33],33.7 µM
same,TGI,[34],27.6 µM
same,TGI,[35],40.7 µM
same,TGI,[36],22.7 µM
same,TGI,[37],12.3 µM
same,TGI,[38],28.9 µM
same,TGI,[39],30.2 µM
same,TGI,[40],> 100 µM
same,TGI,[41],20.1 µM
same,TGI,[42],26.7 µM
same,TGI,[43],33 µM
same,TGI,[44],26.3 µM
same,TGI,[45],31.8 µM
same,TGI,[46],29.2 µM
same,TGI,[47],36 µM
same,TGI,[56],33.3 µM
same,TGI,[48],14.9 µM
same,TGI,[49],40.1 µM
same,TGI,[57],41.5 µM
same,TGI,[50],24.5 µM
same,TGI,[58],28.8 µM
same,TGI,[51],32 µM
same,TGI,[59],29.2 µM
same,TGI,[52],38.3 µM
Cc1nc2ccc(Cl)cc2c(-n2ccnc2)c1CCn1ccnc1,TGI,[1],3.2 µM
same,TGI,[53],76.2 µM
same,TGI,[2],> 100 µM
same,TGI,[3],83.6 µM
same,TGI,[4],69.7 µM
same,TGI,[5],> 100 µM
same,TGI,[6],69.3 µM
same,TGI,[7],41.5 µM
same,TGI,[8],> 100 µM
same,TGI,[10],> 100 µM
same,TGI,[11],> 100 µM
same,TGI,[12],> 100 µM
same,TGI,[13],62.7 µM
same,TGI,[14],> 100 µM
same,TGI,[15],57.8 µM
same,TGI,[16],49.1 µM
same,TGI,[54],41.7 µM
same,TGI,[17],> 100 µM
same,TGI,[18],89.3 µM
same,TGI,[19],> 100 µM
same,TGI,[20],> 100 µM
same,TGI,[21],97 µM
same,TGI,[22],> 100 µM
same,TGI,[23],48.9 µM
same,TGI,[24],> 100 µM
same,TGI,[25],84.7 µM
same,TGI,[27],53.2 µM
same,TGI,[28],> 100 µM
same,TGI,[29],> 100 µM
same,TGI,[30],70.9 µM
same,TGI,[31],6.03 µM
same,TGI,[32],> 100 µM
same,TGI,[33],> 100 µM
same,TGI,[34],> 100 µM
same,TGI,[35],3.37 µM
same,TGI,[36],72.1 µM
same,TGI,[38],53.1 µM
same,TGI,[39],> 100 µM
same,TGI,[40],> 100 µM
same,TGI,[41],> 100 µM
same,TGI,[42],44.7 µM
same,TGI,[43],92.8 µM
same,TGI,[44],46.4 µM
same,TGI,[45],> 100 µM
same,TGI,[46],> 100 µM
same,TGI,[47],> 100 µM
same,TGI,[56],72.8 µM
same,TGI,[48],20.5 µM
same,TGI,[49],> 100 µM
same,TGI,[50],> 100 µM
same,TGI,[58],> 100 µM
same,TGI,[51],61 µM
same,TGI,[59],62.5 µM
same,TGI,[52],74.6 µM
Cc1c2cccc-2c2cc(O)c3ccccc3c2n1-c1ccc(N(C)C)cc1,TGI,[1],33.1 µM
same,TGI,[53],30.7 µM
same,TGI,[2],31.6 µM
same,TGI,[3],24.9 µM
same,TGI,[4],23.3 µM
same,TGI,[5],31.7 µM
same,TGI,[6],32.8 µM
same,TGI,[7],32.6 µM
same,TGI,[9],11.7 µM
same,TGI,[10],35.1 µM
same,TGI,[11],35.4 µM
same,TGI,[12],20 µM
same,TGI,[13],> 100 µM
same,TGI,[14],27.9 µM
same,TGI,[15],8 µM
same,TGI,[16],37.5 µM
same,TGI,[54],31.4 µM
same,TGI,[17],14.5 µM
same,TGI,[18],26.8 µM
same,TGI,[55],23.1 µM
same,TGI,[19],27.8 µM
same,TGI,[20],27.9 µM
same,TGI,[21],29 µM
same,TGI,[22],17.4 µM
same,TGI,[23],9.75 µM
same,TGI,[24],27.8 µM
same,TGI,[25],36.9 µM
same,TGI,[27],24.4 µM
same,TGI,[28],18.2 µM
same,TGI,[29],59 µM
same,TGI,[30],33 µM
same,TGI,[31],30.7 µM
same,TGI,[32],19.1 µM
same,TGI,[33],12.1 µM
same,TGI,[34],24.7 µM
same,TGI,[35],33.8 µM
same,TGI,[36],23.9 µM
same,TGI,[37],26.6 µM
same,TGI,[39],32.8 µM
same,TGI,[40],22.5 µM
same,TGI,[41],27.9 µM
same,TGI,[42],31.4 µM
same,TGI,[43],35 µM
same,TGI,[44],24.1 µM
same,TGI,[45],29.3 µM
same,TGI,[46],33.9 µM
same,TGI,[47],30 µM
same,TGI,[56],17.5 µM
same,TGI,[48],26.4 µM
same,TGI,[49],53.6 µM
same,TGI,[57],0.829 µM
same,TGI,[50],32.5 µM
same,TGI,[58],25.9 µM
same,TGI,[51],> 100 µM
same,TGI,[59],29.5 µM
same,TGI,[52],24.8 µM
